Paper PMC10149257, “Substrate recognition and proton coupling by a bacterial member of solute carrier family 17” (The Journal of Biological Chemistry, 2023)
Values belong to the molecule of their own block, whether it stands above or below them.

Assays:
Sialin [1] = target: T1, Sialin (Rattus norvegicus, UniProt Q5Q0U0); assay: inhibition of 3H-glucuronic acid uptake by unlabelled compound in transfected HEK293T cells; format: cell-based; details: room temperature, 4 min, Ringer's solution; self-competition with labelled compound
T1 construct: gene Slc17a5
T1 sequence (Q5Q0U0 1-495): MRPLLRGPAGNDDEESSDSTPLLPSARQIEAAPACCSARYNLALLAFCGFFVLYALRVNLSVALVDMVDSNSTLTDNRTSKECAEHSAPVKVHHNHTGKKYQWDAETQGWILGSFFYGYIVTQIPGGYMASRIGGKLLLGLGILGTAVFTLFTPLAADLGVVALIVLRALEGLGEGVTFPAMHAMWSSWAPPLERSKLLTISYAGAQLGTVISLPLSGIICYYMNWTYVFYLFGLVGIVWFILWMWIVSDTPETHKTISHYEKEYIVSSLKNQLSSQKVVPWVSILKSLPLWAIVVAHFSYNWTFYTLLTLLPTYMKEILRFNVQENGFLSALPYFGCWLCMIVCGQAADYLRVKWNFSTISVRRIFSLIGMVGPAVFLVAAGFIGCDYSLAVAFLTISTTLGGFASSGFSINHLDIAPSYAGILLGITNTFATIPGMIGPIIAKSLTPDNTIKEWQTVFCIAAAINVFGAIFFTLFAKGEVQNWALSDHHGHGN

Sialin [2] = target: T2, Sialin (Rattus norvegicus, UniProt Q5Q0U0, Y54F, form not given); assay: as above; format: cell-based; details: room temperature, 4 min, Ringer's solution; self-competition with labelled compound
T2 construct: gene Slc17a5
T2 sequence (Q5Q0U0 1-495 Y54F): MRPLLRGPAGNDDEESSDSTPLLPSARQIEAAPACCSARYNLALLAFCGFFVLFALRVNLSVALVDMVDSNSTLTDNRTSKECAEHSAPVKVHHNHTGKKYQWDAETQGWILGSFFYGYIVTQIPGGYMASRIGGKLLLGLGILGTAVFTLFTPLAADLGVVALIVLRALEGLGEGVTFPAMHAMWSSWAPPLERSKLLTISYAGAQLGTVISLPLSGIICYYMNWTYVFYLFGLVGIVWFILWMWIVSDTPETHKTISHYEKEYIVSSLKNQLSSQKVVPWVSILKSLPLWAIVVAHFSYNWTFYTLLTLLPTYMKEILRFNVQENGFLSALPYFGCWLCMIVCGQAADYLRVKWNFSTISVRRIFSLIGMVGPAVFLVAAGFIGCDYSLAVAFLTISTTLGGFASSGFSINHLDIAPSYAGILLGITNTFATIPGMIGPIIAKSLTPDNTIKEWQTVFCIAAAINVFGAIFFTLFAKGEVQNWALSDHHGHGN

[3] = system: T3, O=C(O)[C@H](O)[C@@H](O)[C@@H](O)[C@H](O)CO; assay: cells, lysate or membranes; format: cell-based, Escherichia coli; details: 150 mM KCl, pH 6, 30 °C, 30 s, H+ cotransport, labelled compound
T3 construct: full length, C-terminal modified decahistidine tag, pBAD; expressed in dgoT-deleted E. coli (Keio dgoT727(del)::kan)

[4] = substrate: O=C(O)[C@H](O)[C@@H](O)[C@@H](O)[C@H](O)CO; assay: cells, lysate or membranes; format: cell-based, Escherichia coli; details: 150 mM KCl, pH 6, 30 °C, 20 s, H+ cotransport, labelled compound

IC50 (Sialin [1]): ~2000 µM
IC50 (Sialin [2]): ~3000 µM
Molecule: O=C(O)[C@H]1OC(O)[C@H](O)[C@@H](O)[C@@H]1O (stereo partly shown) [glucuronic acid]

Molecule: DgoT (Escherichia coli; Y44F)
Km [3]: 22.8 ± 7.7 µM

B1: DgoT (Escherichia coli) (protein)
chain: MVSGFAMPKIWRKLAMDIPVNAAKPGRRRYLTLVMIFITVVICYVDRANLAVASAHIQEEFGITKAEMGYVFSAFAWLYTLCQIPGGWFLDRVGSRVTYFIAIFGWSVATLFQGFATGLMSLIGLRAITGIFEAPAFPTNNRMVTSWFPEHERASAVGFYTSGQFVGLAFLTPLLIWIQEMLSWHWVFIVTGGIGIIWSLIWFKVYQPPRLTKGISKAELDYIRDGGGLVDGDAPVKKEARQPLTAKDWKLVFHRKLIGVYLGQFAVASTLWFFLTWFPNYLTQEKGITALKAGFMTTVPFLAAFVGVLLSGWVADLLVRKGFSLGFARKTPIICGLLISTCIMGANYTNDPMMIMCLMALAFFGNGFASITWSLVSSLAPMRLIGLTGGVFNFAGGLGGITVPLVVGYLAQGYGFAPALVYISAVALIGALSYILLVGDVKRVG
notes: full length, C-terminal modified decahistidine tag, pBAD; expressed in dgoT-deleted E. coli (Keio dgoT727(del)::kan)
Km [4]: 1.97 ± 1.1 µM
